US20250213510A1, “Aqueous Composition” (TSUBOTA LABORATORY, Inc., priority 2022, published 2025)

How the values were obtained:
[1] = Stability of sodium 4-phenylbutyrate in unit-dose type containers (liquid chromatography); format: physicochemical; conditions: PE, COC/PE; 40° C., 1 month (Table 1-5)
Method: An aqueous composition (formulation 2-1) shown in Table 1-4 was prepared through a usual method to fill a 0.5-mL volume polyethylene (PE) unit-dose type container and a unit-dose type resin container made of a mixture of a cyclic olefin copolymer (COC) and polyethylene (PE) by 0.5 mL each.
Liquid chromatography was used to quantify sodium 4-phenylbutyrate. 20 μL of 0.02 w/v % sodium 4-phenylbutyrate solution was used as a standard solution, and 20 μL of a formulation 2-1 diluted 10 times with a mobile phase was used as a sample solution. The standard solution and the sample solution were each placed on a reverse-phase column (YMC-Pack ODS-A (I.D. 4.6 mm×150 mm, 5 μm) manufactured by YMC CO., LTD.) maintained at 30° C., and eluted with a 0.2% formic acid solution-acetonitrile mixture as a mobile phase. Detection was performed with an ultraviolet absorptiometer (measurement wavelength: 260 nm). Thereafter, the peak area of sodium 4-phenylbutyrate was measured for the standard solution and the sample solution, and the concentration of sodium 4-phenylbutyrate was determined for the formulation 2-1 immediately after preparation and after storage at 40° C. for 1 month using Equation 3 below.

[2] = Stability of sodium 4-phenylbutyrate in multi-dose type containers (liquid chromatography); format: physicochemical; conditions: PE, PP, PET; 60° C., 1 week (Table 1-2)
Method: Each aqueous composition (formulations 1-0 to 1-4) shown in Table 1-1 was prepared through a usual method to fill 5-mL volume multi-dose type containers made of polyethylene (PE), polypropylene (PP), and polyethylene terephthalate (PET) by 5 mL each.
Liquid chromatography was used to quantify sodium 4-phenylbutyrate. 10 μL of 0.05 w/v % sodium 4-phenylbutyrate solution was used as a standard solution, and 10 μL of a formulation diluted 10 times with a mobile phase was used as a sample solution. The standard solution and the sample solution were each placed on a reverse-phase column (YMC-Pack ODS-A (I.D. 4.6 mm×150 mm, 5 μm) manufactured by YMC CO., LTD.) maintained at 30° C., and eluted with a 0.2% formic acid solution-acetonitrile mixture as a mobile phase. Detection was performed with an ultraviolet absorptiometer (measurement wavelength: 260 nm). Thereafter, the peak area of sodium 4-phenylbutyrate was measured for the standard solution and the sample solution, and the concentration of sodium 4-phenylbutyrate was determined for each formulation immediately after preparation and after storage at 60° C. for 1 week using Equation 1 below.

Stability of sodium 4-phenylbutyrate itself among the container resins [1]: no difference in stability | Stability of sodium 4-phenylbutyrate itself among the container resins [2]: no difference in stability
SMILES: O=C([O-])CCCc1ccccc1.[Na+] [sodium 4-phenylbutyrate, Sodium 4-phenylbutyrate]
